Measurements reported in patent publication US6436682B1, “Luciferases, fluorescent proteins, nucleic acids encoding the luciferases and fluorescent proteins and the use thereof in diagnostics, high throughput screening and novelty items” (Prolume, Ltd., priority 1998, dated 2002).
Like-named read-outs stand apart in the source and are kept apart here.

T1: Renilla luciferase (Renilla reniformis, UniProt P27652)
T1 sequence (P27652 1-311): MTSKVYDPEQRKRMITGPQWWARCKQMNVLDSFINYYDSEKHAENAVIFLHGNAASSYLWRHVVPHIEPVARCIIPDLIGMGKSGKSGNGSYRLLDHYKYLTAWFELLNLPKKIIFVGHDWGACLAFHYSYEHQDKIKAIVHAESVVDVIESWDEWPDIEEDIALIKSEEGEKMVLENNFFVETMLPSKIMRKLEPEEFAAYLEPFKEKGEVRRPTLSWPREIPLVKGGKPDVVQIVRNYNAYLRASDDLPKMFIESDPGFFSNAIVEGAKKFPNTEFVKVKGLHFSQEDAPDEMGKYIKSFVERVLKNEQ

B1: Renilla mulleri GFP: green fluorescent protein of Renilla mulleri, 238 amino acids, SEQ ID No. 16 (protein, listed as Renilla mulleri)
chain: MSKQILKNTCLQEVMSYKVNLEGIVNNHVFTMEGCGKGNILFGNQLVQIRVTKGAPLPFAFDIVSPAFQYGNRTFTKYPNDISDYFIQSFPAGFMYERTLRYEDGGLVEIRSDINLIEDKFVYRVEYKGSNFPDDGPVMQKTILGIEPSFEAMYMNNGVLVGEVILVYKLNSGKYYSCHMKTLMKSKGVVKEFPSYHFIQHRLEKTYVEDGGFVEQHETAIAQMTSIGKPLGSLHEWV
modifications: Renilla mulleri Green Fluorescent Protein (GFP)

How the values were obtained:
Renilla luciferase = biological target: T1, Renilla luciferase; settings: cited from earlier work
mice = experiment: Repeated i.p. administration, gross signs of toxicity in behavior; assay type: in vivo; settings: 1 mg/kg i.p., daily administration for three days
Experimental: […] Mice are examined over the course of the study for any gross signs of toxicity as evidenced in their behavior. At the end of the one-week period, blood is collected by cardiac puncture immediately prior to sacrifice. Animals are sacrificed and ten different tissue samples are removed post mortem from each animal. Isolated tissues are fixed, stained, blocked and sectioned. The pathology of the tissue samples are analyzed and the toxicology data are compiled.

[1] = assay type: physicochemical
Description: Coelenterazine is not terribly soluble in non-irritant vehicles. Coelenterazine is soluble to at least to a concentration of 200 micrograms/mL in a solution of 2% (w/v) PEG 400 containing about 0.8% (w/v) NaCl. Although this solution is slightly hypertonic, it is not an irritant for vehicle purposes.

HeLa cells = experiment: Functional expression of Renilla mulleri GFP in mammalian cells; assay type: cell-based; settings: 30 micrograms pcDNA-Renilla mulleri GFP DNA, 37° C., 8 hours, CMV promoter
Description: HeLa cells were transfected with the plasmid pcDNA3.1(+) containing Renilla mulleri GFP under the control of a CMV promoter (construct No. B(1) as described above). […]
The fluorescence was localized to pairs of cells that were undergoing, or apparently had recently undergone, a single round of cell-division. […] This is in contrast to the Aequorea GFP, which folds inefficiently into a functional form under the physiological conditions.
Filters (470/40 excitation filter, 495 excitation dichroic filter and 525/50 emission filter) used in visualization of R. mulleri GFP fluorescence in HeLa cells were the Endo GFP filter set sold by Chroma.

[2] = Renilla luciferase, in the presence of Renilla GFP
[3] = Renilla luciferase, without GFP

Row | Molecule | bioluminescence quantum yield (Renilla luciferase; [2]) | increase in the amount of light emitted upon addition of GFP (Renilla luciferase; Renilla luciferase, with versus without GFP) | bioluminescence quantum yield (Renilla luciferase; [3]) | gross behavior changes (mice) | solubility [1] | peak of emitted light (Renilla luciferase; luciferase, upon addition of GFP) | fluorescence of transfected cells (HeLa cells)
1 | coelenterazine | 13% | nearly two-fold | 6.9% | no gross behavior changes | ≥ 200 micrograms/mL | – | –
2 | O=C(Cc1ccc(O)cc1)NC1N=CC(c2ccccc2)=NC1Cc1ccccc1 (stereo not drawn) [coelenterazine of formula (V)] | 2.3% | – | about 0.012% | – | – | 509 nm | –
3 | B1 | – | – | – | – | – | – | highly fluorescent
